The target in test [1] is T1, myeloperoxidase (MPO) (Homo sapiens (Human), UniProt P05164). As to the kind of experiment: MPO peroxidation assay (Amplex Red assay). In kind it is biochemical. The conditions noted are these: potency range class. The method, then: MPO Peroxidation Assay (Amplex Red Assay) MPO peroxidation activity was measured in 100 mM KPi (pH 7.4) by utilizing the non-fluorescent reagent Amplex Red (Invitrogen Cat. #A12222) which can be oxidized to the highly fluorescent resorufin. Amplex Red is oxidized by the peroxidase action of MPO to resorufin. Reactions were carried out in 50 μL total volume by adding a 25 μL mixture of 200 pM myeloperoxidase and 40 nM H2O2(Sigma #349887) to 100 nL inhibitor in 100% DMSO in a 384 well Perkin Elmer Optiplate. Enzyme and compound were preincubated for ten minutes at room temperature. After the ten minute preincubation, 25 μL of an Amplex Red mixture containing 200 μM Amplex Red and 10 mM H2O2 was added to the plate. Kinetic determinations were carried out immediately on a Perkin Elmer Envision (15 minute kinetic read, Ex: 535 nm, Em: 590 nm). IC50 values were calculated by determining the slope of the linear portion of the kinetic trace (180-540 secs), and using that calculated slope to determine % inhibition occurring at each concentration of inhibitor using the following equation: [formula] where A=minimal Y value (activity level of inhibited sample), B=maximal Y value (activity level of uninhibited sample), C=Log IC50, D=Hill Slope, x=concentration of inhibitor. MPO Chlorination Assay (APF Assay)
T1 sequence (P05164 49-745): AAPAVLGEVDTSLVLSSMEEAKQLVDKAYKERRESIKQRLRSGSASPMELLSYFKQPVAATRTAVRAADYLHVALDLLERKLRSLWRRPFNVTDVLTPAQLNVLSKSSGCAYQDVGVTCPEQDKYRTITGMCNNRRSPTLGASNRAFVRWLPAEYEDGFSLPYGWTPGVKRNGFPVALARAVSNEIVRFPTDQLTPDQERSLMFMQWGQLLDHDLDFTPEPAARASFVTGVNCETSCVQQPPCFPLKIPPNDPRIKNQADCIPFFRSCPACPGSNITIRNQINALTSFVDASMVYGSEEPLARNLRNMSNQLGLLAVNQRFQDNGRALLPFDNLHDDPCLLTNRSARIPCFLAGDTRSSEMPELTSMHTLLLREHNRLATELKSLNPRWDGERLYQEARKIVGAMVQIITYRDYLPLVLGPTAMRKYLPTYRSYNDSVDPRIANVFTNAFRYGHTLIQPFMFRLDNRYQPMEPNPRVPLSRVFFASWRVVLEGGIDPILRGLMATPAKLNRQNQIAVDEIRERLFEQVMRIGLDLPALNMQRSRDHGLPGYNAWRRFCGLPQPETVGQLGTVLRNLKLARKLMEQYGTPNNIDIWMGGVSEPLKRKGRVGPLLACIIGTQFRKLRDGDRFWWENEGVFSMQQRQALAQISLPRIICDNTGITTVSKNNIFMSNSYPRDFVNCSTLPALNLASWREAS

Test [2] addresses T1, myeloperoxidase (MPO). As to the kind of experiment: MPO chlorination assay (APF assay). The test is classed as biochemical. The conditions noted are these: potency range class. How it is done:
[formula] where A=minimal Y value (activity level of inhibited sample), B=maximal Y value (activity level of uninhibited sample), C=Log IC50, D=Hill Slope, x=concentration of inhibitor. MPO Chlorination Assay (APF Assay) MPO chlorination activity was measured in 100 mM KPi (pH 7.4) by utilizing the non-fluorescent reagent Aminophenyl fluorescein (APF, Invitrogen Cat. #A36003). APF is cleaved by (—OCl) to yield the fluorescent compound fluorescein. Reactions were carried out in 50 μL total volume by adding a 25 μL mixture of 200 pM myeloperoxidase and 120 mM NaCl to 100 nL inhibitor in 100% DMSO in a 384 well, non-binding surface clear bottom plate (Corning #3655). Enzyme, inhibitor, and chloride were preincubated for ten minutes at room temperature. After the ten minute preincubation, 25 μL of an APF mixture containing […], 120 mM NaCl and 10 μM H2O2 was added to the plate using the internal dispensing system of a Hammatsu FDSS 6000. Kinetic determinations were carried out immediately on the FDSS 6000 (3 minute kinetic read, 1 read every second, ex: 485 nm, em: 535 nm). IC50 values for inhibitors were calculated by taking the slope of the linear portion of the kinetic measurement (20 seconds to ˜80-120 secs). IC50 values were calculated by determining the slope of the linear portion of the kinetic trace […], and using that calculated slope to determine % inhibition occurring at each concentration of inhibitor using the following equation: [formula] where A=minimal Y value (activity level of inhibited sample), B=maximal Y value (activity level of uninhibited sample), C=Log IC50, D=Hill Slope, x=concentration of inhibitor. EPX Bromination Assay

pIC50: −log10 of the molar value.

Usually pIC50 stands for the negative decadic logarithm of the IC50, by convention in mol/L. As to `Nc1cc(Cc2cnn(-c3ccccc3)n2)c2nn[nH]c2n1` [Example 6, 7-((2-Phenyl-2H-1,2,3-triazol-4-yl)methyl)-3H-[1,2,3]triazolo[4,5-b]pyridin-5-amine], the pIC50 in test [1] and in test [2] was 6.00 to 7.00 in each case.
Regarding `Nc1cc(Cc2cnn(-c3cccc(Cl)c3)c2)c2nn[nH]c2n1` [Example 7, 7-((1-(3-Chlorophenyl)-1H-pyrazol-4-yl)methyl)-3H-[1,2,3]triazolo[4,5-b]pyridin-5-amine], the pIC50 in test [1] and in test [2] was 7.00 to 9.00 each time.
With `Nc1cc(Cc2cnn(-c3cccc4ccccc34)c2)c2nn[nH]c2n1` [Example 9, 7-((1-(Naphthalen-1-yl)-1H-pyrazol-4-yl)methyl)-3H-[1,2,3]triazolo[4,5-b]pyridin-5-amine], the pIC50 in test [1] and in test [2] was 7.00 to 9.00 in each case.
Consider `Cc1cc(-n2cc(Cc3cc(N)nc4[nH]nnc34)cn2)ccc1F` [Example 10, 7-((1-(4-Fluoro-3-methylphenyl)-1H-pyrazol-4-yl)methyl)-3H-[1,2,3]triazolo[4,5-b]pyridin-5-amine], for which the pIC50 is 7.00 to 9.00 in test [1] and 6.00 to 7.00 in test [2].
The corresponding values for `Nc1cc(Cc2cnn(-c3cccc(-c4ccccc4)c3)c2)c2nn[nH]c2n1` [Example 11, 7-((1-([1,1′-Biphenyl]-3-yl)-1H-pyrazol-4-yl)methyl)-3H-[1,2,3]triazolo[4,5-b]pyridin-5-amine] are 7.00 to 9.00 and 7.00 to 9.00.
Take `Nc1cc(Cc2cnn(-c3cccc(C(F)(F)F)c3)c2)c2nn[nH]c2n1` [Example 14, 7-((1-(3-(Trifluoromethyl)phenyl)-1H-pyrazol-4-yl)methyl)-3H-[1,2,3]triazolo[4,5-b]pyridin-5-amine]: the pIC50 in test [1] was 7.00 to 9.00; in test [2] it was 6.00 to 7.00.
Turning to `Cc1ccnc(-n2cc(Cc3cc(N)nc4[nH]nnc34)cn2)c1` [Example 19, 7-((1-(4-Methylpyridin-2-yl)-1H-pyrazol-4-yl)methyl)-3H-[1,2,3]triazolo[4,5-b]pyridin-5-amine], the pIC50 in test [1] and in test [2] was 7.00 to 9.00 throughout.
For the compound `Cc1cccc(-n2cc(Cc3cc(N)nc4[nH]nnc34)cn2)n1` [Example 20, 7-((1-(6-Methylpyridin-2-yl)-1H-pyrazol-4-yl)methyl)-3H-[1,2,3]triazolo[4,5-b]pyridin-5-amine], the negative logarithm of the IC50 (pIC50) in test [1] and in test [2] was 7.00 to 9.00 in each case.
On to `Nc1cc(Cc2cnn(-c3cccc(Cc4ccccc4)c3)c2)c2nn[nH]c2n1` [Example 21, 7-((1-(3-Benzylphenyl)-1H-pyrazol-4-yl)methyl)-3H-[1,2,3]triazolo[4,5-b]pyridin-5-amine], for which the pIC50 is 7.00 to 9.00 in test [1] and 6.00 to 7.00 in test [2].
The corresponding values for `Cc1ccccc1-n1cc(Cc2cc(N)nc3[nH]nnc23)cn1` [Example 24, 7-((1-(2-Methylphenyl)-1H-pyrazol-4-yl)methyl)-3H-[1,2,3]triazolo[4,5-b]pyridin-5-amine] are 6.00 to 7.00 and 7.00 to 9.00.
The corresponding values for `Cc1cccc(-n2cc(Cc3cc(N)nc4[nH]nnc34)cn2)c1` [Example 25, 7-((1-(3-Methylphenyl)-1H-pyrazol-4-yl)methyl)-3H-[1,2,3]triazolo[4,5-b]pyridin-5-amine] are 7.00 to 9.00 and 6.00 to 7.00.
With `Nc1cc(Cc2cnn(-c3ccccn3)c2)c2nn[nH]c2n1` [Example 31, 7-((1-(Pyridin-2-yl)-1H-pyrazol-4-yl)methyl)-3H-[1,2,3]triazolo[4,5-b]pyridin-5-amine], the pIC50 in test [1] and in test [2] was 7.00 to 9.00 throughout.
Consider `Nc1cc(Cc2ccn(-c3ccccc3)n2)c2nn[nH]c2n1` [Example 33, 7-((1-Phenyl-1H-pyrazol-3-yl)methyl)-3H-[1,2,3]triazolo[4,5-b]pyridin-5-amine], for which the pIC50 in test [1] and in test [2] was 6.00 to 7.00 in each case.
Regarding `Nc1cc(Cc2cnn(-c3cccc(COc4ccccc4)c3)c2)c2nn[nH]c2n1` [Example 36, 7-((1-(3-(Phenoxymethyl)phenyl)-1H-pyrazol-4-yl)methyl)-3H-[1,2,3]triazolo[4,5-b]pyridin-5-amine], the pIC50 was 7.00 to 9.00 in test [1] and 6.00 to 7.00 in test [2].
The corresponding values for `Nc1cc(Cc2cnn(Cc3ccc(-c4ccccc4)cc3)c2)c2nn[nH]c2n1` [Example 39, 7-((1-([1,1′-Biphenyl]-4-ylmethyl)-1H-pyrazol-4-yl)methyl)-3H-[1,2,3]triazolo[4,5-b]pyridin-5-amine] are 7.00 to 9.00 and 6.00 to 7.00.
The corresponding values for `Nc1cc(Cc2cnn(CCc3ccccc3)c2)c2nn[nH]c2n1` [Example 40, 7-((1-Phenethyl-1H-pyrazol-4-yl)methyl)-3H-[1,2,3]triazolo[4,5-b]pyridin-5-amine] are 7.00 to 9.00 and 7.00 to 9.00.
The corresponding values for `Nc1cc(Cc2cnn(Cc3cccc4ccccc34)c2)c2nn[nH]c2n1` [Example 41, 7-((1-(Naphthalen-1-ylmethyl)-1H-pyrazol-4-yl)methyl)-3H-[1,2,3]triazolo[4,5-b]pyridin-5-amine] are 7.00 to 9.00 and 7.00 to 9.00.
For `Nc1cc(Cc2cnn(Cc3ccc4ccccc4c3)c2)c2nn[nH]c2n1` [Example 42, 7-((1-(Naphthalen-2-ylmethyl)-1H-pyrazol-4-yl)methyl)-3H-[1,2,3]triazolo[4,5-b]pyridin-5-amine], the pIC50 in test [1] and in test [2] was 7.00 to 9.00 in each case.
On to `Cc1ccccc1Cn1cc(Cc2cc(N)nc3[nH]nnc23)cn1` [Example 43, 7-((1-(2-Methylbenzyl)-1H-pyrazol-4-yl)methyl)-3H-[1,2,3]triazolo[4,5-b]pyridin-5-amine], for which the figures for the pIC50 in test [1] and in test [2] were 7.00 to 9.00 and 6.00 to 7.00, respectively.
Take `Nc1cc(Cc2cnn(Cc3cccc(-c4ccccc4)c3)c2)c2nn[nH]c2n1` [Example 44, 7-((1-([1,1′-Biphenyl]-3-ylmethyl)-1H-pyrazol-4-yl)methyl)-3H-[1,2,3]triazolo[4,5-b]pyridin-5-amine]: the pIC50 in test [1] and in test [2] was 7.00 to 9.00 throughout.
Turning to `Nc1cc(Cc2cnn(Cc3ccc(Cl)cc3)c2)c2nn[nH]c2n1` [Example 45, 7-((1-(4-Chlorobenzyl)-1H-pyrazol-4-yl)methyl)-3H-[1,2,3]triazolo[4,5-b]pyridin-5-amine], the pIC50 in test [1] and in test [2] was 7.00 to 9.00 throughout.
Regarding `Nc1cc(Cc2cnn(Cc3ccc(C(=O)O)cc3)c2)c2nn[nH]c2n1` [Example 46, 4-((4-((5-Amino-3H-[1,2,3]triazolo[4,5-b]pyridin-7-yl)methyl)-1H-pyrazol-1-yl)methyl)benzoic acid], the pIC50 in test [1] and in test [2] was 5.00 to 6.00 throughout.
Regarding `Nc1cc(Cc2cc(-c3ccccc3)no2)c2nn[nH]c2n1` [Example 48, 7-((3-Phenylisoxazol-5-yl)methyl)-3H-[1,2,3]triazolo[4,5-b]pyridin-5-amine], the pIC50 in test [1] and in test [2] was 6.00 to 7.00 each time.
`Nc1cc(Cc2cnn(C3CCCC3)c2)c2nn[nH]c2n1` [Example 54, 7-((1-Cyclopentyl-1H-pyrazol-4-yl)methyl)-3H-[1,2,3]triazolo[4,5-b]pyridin-5-amine]: the pIC50 in test [1] and in test [2] was 7.00 to 9.00 in each case.
Take `Nc1cc(Cc2cnn(CC3CCCCC3)c2)c2nn[nH]c2n1` [Example 55, 7-((1-(Cyclohexylmethyl)-1H-pyrazol-4-yl)methyl)-3H-[1,2,3]triazolo[4,5-b]pyridin-5-amine]: the pIC50 in test [1] and in test [2] was 7.00 to 9.00 throughout.

For the origin of these results see patent publication US10407422B2, “Triazolopyridine inhibitors of myeloperoxidase” (priority 2015, dated 2019).
